According to patent US6855549B1, “Methods and compositions for increasing the infectivity of gene transfer vectors” (The University of Iowa Research Foundation, priority 1998, dated 2005):
“Also recorded” adds a separate entry of the source.

Legend:
[1] = system: differentiated human airway epithelia; type: cell-based; details: VSV-G pseudotyped HIV-based lentivirus
lung epithelial layer = test: Fluorescent bead penetration of lung epithelium after EGTA instillation; type: in vivo, rat; details: 3 or 12 mM EGTA, 100 μl into left lobe, one hour
Protocol: Preliminary studies were performed in rats to test the feasibility of using hypotonic solutions with EGTA to increase transepithelial permeability in vivo. 3 wk old rats were tracheotomized and a small caliber PE catheter inserted into the left lobe of the lung. 100 μl of 3 or 12 mM EGTA in water or PBS was mixed with […] fluorescent beads (a marker for viral particles) and instilled into the lungs. One hour later the animals were sacrificed and lung, tissue sections examined under fluorescence microscopy to determine if the fluorescent beads penetrated the epithelial layer. In the PBS control animal, fluorescent particles were only noted in the airway lunen. […] It also was asked if animals treated with EGTA/H2O developed changes in lung morphology. Animals received PBS or 12, 60, or 120 mM EGTA/water into the left lobe of the lung and 1 wk later were sacrificed and H & E stained lung tissues examined.

[2] = system: differentiated human airway epithelia; test: Confocal (latex beads) and transmission electron microscopy of epithelial junctions after EGTA; type: cell-based; details: 1 hr
Protocol: Ten micromoles of CMFDA (5-chloromethylfluorescein diacetate; Molecular Probes, Eugene, Oreg.) were added to the basal medium overnight to label cells (Knecht and Shelden, 1995; Stewart and Deacon, 1995). 100 nm latex beads (1×10^9 particles, Sigma, St. Louis, Mo.) were mixed with 12 mM hypotonic EGTA solution at a 1:1 ratio. The suspension was applied to the apical surface of KGF-stimulated epithelia for 1 hr. The epithelia were then washed with PBS 4-5 times for 20 min and then fixed in 4% paraformaldehyde/PBS for 20 min. The cell filter membranes were removed, mounted on slides, and examined under a confocal microscope (MRC 1024, Bio-Rad).
Transmission electron microscopy was used to study cell morphology following treatment with a 6 mM EGTA in hypotonic buffer for 1 hr. Differentiated human airway epithelia were fixed in 2.5% glutaraldehyde (0.1 M sodium cacodylate buffer, pH 7.4) overnight at 4° C., and then post-fixed with 1% osmium tetroxide for 1 hr. Following serial alcohol dehydration, samples were embedded in Eponate 12 (Ted Pella, Inc., Redding, Calif.). Sectioning and post-staining were performed using routine methods (see “Electron Microscopy: Principles and Techniques for Biologists,” Jones and Bartlett Publishers, Sudbury, Mass., 1998). Samples were examined under a Hitachi H-7000 transmission electron microscope. […]

human nasal epithelium = test: Nasal transepithelial voltage (Vt) in human volunteers; type: in vivo
Protocol: Human studies. The Vt across the nasal epithelium was measured in 6 volunteers using previously described methods (Zabner et al., 1996). The protocol followed was identical to that described above for the rabbit studies. […] The catheter was then left in that position for the entire recording period. The solutions were administered through the second lumen in the following order: 1) Normal saline for 5 min; 2) Sterile water with 10 mM EGTA or 10 mM EDTA for 10 min; 3) Nommal saline with 10 mM EGTA or 10 mM EDTA for 5 min; and 4) Normal saline with 10 mM, EGTA or 10 mM EDTA plus […] amiloride for 5 min. Measurements of Vt were read by two investigators who were blinded and wvere checked by a third investigator if there was a discrepancy of more than 2 mV. Disruption of epithelial junctions was assessed by detecting a fall in nasal Vt after perfusion with the chelator, and by the loss of amiloride-sensitive Vt after perfusion with the. chelator solution.

[3] = system: rabbit tracheal epithelium; test: Retroviral or adenoviral gene transfer to rabbit tracheal epithelium after EGTA pretreatment; type: in vivo; details: retroviral (MuLV, KGF pretreated) or adenoviral vector, three days
Protocol: Gene transfer to the rabbit tracheal epithelium In Vito. Adult New Zealand white rabbits were anesthetized with 32 mg/kg ketamnine, 5.1 mg/kg xylazine and 0.8 mg/kg acepromazine intramuscularly. Using sterile technique, a ventral midline incision was made, exposing the trachea for tracheotomy. A ˜1.5 cm tracheal segment cephalad to the tracheotomy was isolated, and cannulated on each end with PE 330 tubing (Clay Adams, Becton Dickinson). The tracheal segment was first rinsed and then filled with a solution of 12 mM EGTA in water for 45 min. The EGTA solution was removed, and as replaced with 300 μl of retrovirus (titer 3×10^9 cfu/ml) or adenovirus (titer 1×10^10 pfu/ml) vector. In control animals, saline was substituted for water and EGTA treatment. Animals that received the MuLV retrovirus were pretreated with keratinocyte growth factor (KGF) prior to gene transfer to stimulate epithelial proliferation (˜5 mg/kg intravenously and 600 μg via nasal instillation for 3 doses given 36, 24 and 12 hr preceding the procedure) (Wang et al., 1998; Wang et al., 1999). The vector solution was left in place for an additional 45 min. and then the cannulae were removed, the incisions closed, and animals were allowed to recover. Three days later, animals were sacrificed, and the tissues studied for β-galactosidase expression.

O=C(O)CN(CCOCCOCCN(CC(=O)O)CC(=O)O)CC(=O)O [EGTA]
gene transfer, apical surface of quiescent cells with EGTA/hypotonic buffer [1]: gene transfer was enhanced | penetration of 100 nM fluorescent beads into epithelial layer (lung epithelial layer): beads were seen throughout the cell layer and close to the basement membrane | width of intercellular gap (TEM) ([2]; 6 mM EGTA in hypotonic buffer): ~500 nm | intercellular spaces and deposition of 100 nm beads ([2]; hypotonic 6 mM EGTA, apical): caused a widening of the intercellular spaces and facilitated deposition of beads in the paracellular space | adverse effects of nasal perfusion (human nasal epithelium; 10 mM EGTA, volunteers): did not experience any adverse effects | nasal Vt (human nasal epithelium; H2O/chelator then chelator in saline, 10 mM): there was a significant decrease in the Vt | amiloride-sensitive nasal Vt after EGTA treatment (human nasal epithelium; n=6): EGTA treatment abolished the amiloride-sensitive Vt; also recorded: essentially no amiloride-sensitive Vt remained | gene transfer to tracheal epithelium after pretreatment with 12 mM EGTA in water [3]: transduced cells throughout the tracheal epithelium
